Columns and labels:
[1] = 1H NMR detection of the interaction of substance 42 with creatine; assay type: binding; details: CD3OD solution; creatine added to the test solution
Procedure: The ability of substance 42 to detect creatine was evaluated by ^1H NMR spectroscopy. […] (Bell, T. W. et al. 36th National Organic Symposium, U. of Wisconsin, Madison, Wis., Jun. 13, 1999-Jun. 17, 1999). [drawing 32] [drawing 33]

[2] = test system: animal models of Huntington's disease; details: oral supplementation; cited from earlier work

In the case of `O=C(O)c1ccc2c(n1)-c1nc3nc4c(cc3cc1CC2)CCc1ccc(C(=O)O)nc1-4` [Substance 42], the “ability to detect creatine (interaction with creatine by 1H NMR)” value [1] is reported as “interaction of creatine with substance 42 was detected”.

For `N=C1NCCN1CC(=O)O` [cyclocreatine, 1-carboxymethyl-2-iminoimidazolidine], the “protection from malonate lesions” value [2] is listed as “protect the animals from malonate lesions”.
